The text below walks through data of BindingDB's records for doi:10.1124/mol.64.4.865 (The Danish University of Pharmaceutical Sciences, 2003).

The target of test [1] is Neuronal acetylcholine receptor subunit alpha-4 (Rattus norvegicus, UniProt P09483).
Test [2] concerns the target Neuronal acetylcholine receptor subunit alpha-7 (Rattus norvegicus, UniProt Q05941).
Test [3] concerns the target Neuronal acetylcholine receptor subunit alpha-3 (Rattus norvegicus, UniProt P04757).
For test [4], the target named is T1, Muscarinic acetylcholine receptor M2 (Rattus norvegicus, UniProt P10980).
T1 sequence (P10980 whole entry): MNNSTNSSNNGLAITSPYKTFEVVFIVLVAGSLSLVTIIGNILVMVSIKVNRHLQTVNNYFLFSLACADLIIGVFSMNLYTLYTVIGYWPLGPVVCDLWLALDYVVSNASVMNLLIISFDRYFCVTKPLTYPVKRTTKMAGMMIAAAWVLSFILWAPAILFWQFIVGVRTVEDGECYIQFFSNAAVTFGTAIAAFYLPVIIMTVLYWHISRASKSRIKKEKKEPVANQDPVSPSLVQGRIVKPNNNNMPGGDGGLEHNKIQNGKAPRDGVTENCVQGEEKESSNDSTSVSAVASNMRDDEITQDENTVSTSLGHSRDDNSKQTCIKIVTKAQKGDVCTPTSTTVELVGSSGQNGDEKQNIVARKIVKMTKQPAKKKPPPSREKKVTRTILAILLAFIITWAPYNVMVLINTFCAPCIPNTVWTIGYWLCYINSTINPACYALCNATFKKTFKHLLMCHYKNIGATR

The target in test [5] is Nicotinic acetylcholine receptor (Rattus leucopus, UniProt Q62594).
Nicotinic acetylcholine receptor, sequence (Q62594 whole entry): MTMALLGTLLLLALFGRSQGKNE

Where “and” joins values, the source holds several entries; their conditions need not be identical. Equal values may be shown once. Some results are limits rather than exact numbers.

Neuronal acetylcholine receptor subunit alpha-7, sequence (Q05941 whole entry): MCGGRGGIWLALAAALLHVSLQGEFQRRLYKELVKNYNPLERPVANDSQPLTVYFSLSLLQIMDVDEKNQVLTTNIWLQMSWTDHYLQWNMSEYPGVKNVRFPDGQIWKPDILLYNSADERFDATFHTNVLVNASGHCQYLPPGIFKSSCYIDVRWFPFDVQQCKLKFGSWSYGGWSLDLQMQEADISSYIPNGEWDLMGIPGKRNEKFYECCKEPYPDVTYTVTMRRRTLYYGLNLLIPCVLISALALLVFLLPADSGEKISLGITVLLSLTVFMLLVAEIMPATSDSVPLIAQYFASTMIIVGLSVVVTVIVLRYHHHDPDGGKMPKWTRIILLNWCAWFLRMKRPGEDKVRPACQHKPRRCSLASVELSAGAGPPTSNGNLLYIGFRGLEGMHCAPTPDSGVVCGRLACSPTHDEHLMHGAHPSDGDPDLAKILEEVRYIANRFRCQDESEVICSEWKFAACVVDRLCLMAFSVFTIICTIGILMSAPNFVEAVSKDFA
Neuronal acetylcholine receptor subunit alpha-4, sequence (P09483 whole entry): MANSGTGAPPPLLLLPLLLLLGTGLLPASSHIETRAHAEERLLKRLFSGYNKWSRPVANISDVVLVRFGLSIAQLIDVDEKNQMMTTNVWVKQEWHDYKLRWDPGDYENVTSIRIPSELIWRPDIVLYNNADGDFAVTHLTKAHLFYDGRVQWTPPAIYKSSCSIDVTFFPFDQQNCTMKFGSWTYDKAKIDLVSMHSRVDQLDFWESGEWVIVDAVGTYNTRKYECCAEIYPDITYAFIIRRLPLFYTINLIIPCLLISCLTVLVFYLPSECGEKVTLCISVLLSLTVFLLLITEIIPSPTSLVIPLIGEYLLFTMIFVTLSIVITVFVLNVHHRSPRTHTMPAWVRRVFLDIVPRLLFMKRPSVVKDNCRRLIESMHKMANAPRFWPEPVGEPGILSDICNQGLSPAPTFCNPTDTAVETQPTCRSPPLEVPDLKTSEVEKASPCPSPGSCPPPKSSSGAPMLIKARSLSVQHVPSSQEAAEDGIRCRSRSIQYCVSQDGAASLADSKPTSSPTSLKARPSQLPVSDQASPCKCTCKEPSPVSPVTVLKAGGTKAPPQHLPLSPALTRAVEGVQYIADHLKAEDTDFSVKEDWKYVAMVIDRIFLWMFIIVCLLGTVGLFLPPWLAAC
Neuronal acetylcholine receptor subunit alpha-3, sequence (P04757 whole entry): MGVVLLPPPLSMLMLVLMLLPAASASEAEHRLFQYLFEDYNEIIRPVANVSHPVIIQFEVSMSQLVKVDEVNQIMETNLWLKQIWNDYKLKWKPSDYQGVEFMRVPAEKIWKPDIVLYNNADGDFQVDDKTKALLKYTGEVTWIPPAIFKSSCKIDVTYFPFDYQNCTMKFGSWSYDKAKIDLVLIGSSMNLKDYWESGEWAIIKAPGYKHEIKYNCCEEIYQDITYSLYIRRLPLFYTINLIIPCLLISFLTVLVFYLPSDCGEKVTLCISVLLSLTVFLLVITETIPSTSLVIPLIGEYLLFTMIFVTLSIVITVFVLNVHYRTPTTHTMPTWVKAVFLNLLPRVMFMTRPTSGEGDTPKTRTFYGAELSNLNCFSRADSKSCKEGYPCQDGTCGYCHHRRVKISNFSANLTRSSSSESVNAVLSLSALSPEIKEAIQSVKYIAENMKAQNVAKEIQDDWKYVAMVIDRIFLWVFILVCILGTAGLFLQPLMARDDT

Consider `O=c1cccc2n1CC1CNCC2C1` (stereo unspecified) [CAS_485-35-8], for which the Ki – broadly, the equilibrium dissociation constant of an inhibitor or competing ligand from its target – was 1.3 nM and 6.8 nM in test [1]; greater than 10000 nM in test [2]; 130 nM in test [3].
`CN(C)C(=O)OCC[N+](C)(C)C` [CAS_84607]: the values for the Ki in test [4] and in test [5] were 1200 nM and 20 nM, respectively.
`CN(C)CCOC(=O)N(C)C` [DMCAE]: the Ki in test [4] was greater than 10000 nM; in test [5], 5700 nM.
On to `C[C@H](CCOC(=O)N(C)C)N(C)C` [3-N,N-dimethylaminobutyl-N,N-dimethylcarbamate], for which the inhibition constant (Ki) in test [1] is 17 nM and 66 nM; in test [2] it was greater than 10000 nM; in test [4], 3600 nM; in test [3] it was 370 nM; in test [5] it was 9 nM.
As for `COC(=O)Nc1ccc(Cl)c(Cl)c1` [SWEP], the inhibition constant (Ki) in test [2] was greater than 10000 nM; in test [4], 150 nM; in test [3] it was 2700 nM; in test [5], 23 nM.
